In patent US20180000085A1, “USE OF PICOLINAMIDE COMPOUNDS WITH FUNGICIDAL ACTIVITY” (DOW AGROSCIENCES LLC, priority 2014, published 2018):

Tests used:
Zymoseptoria tritici = test: Leaf blotch of wheat (SEPTTR) disease control on wheat seedlings; format: in vivo; design: key to SEPTTR 1DP, HV activity at 100 ppm (% control rating) / SEPTTR 3DC, HV activity at 100 ppm (% control rating) / SEPTTR disease control, 1DP / SEPTTR disease control, 3DC / SEPTTR 1DP disease control rating, HV activity / SEPTTR 3DC disease control rating, HV activity / SEPTTR 3DC, LV activity at 125.1 g/H (% Control rating) / SEPTTR 1DP, LV activity at 125.1 g/H (% Control rating) / SEPTTR 1DP disease control rating, LV activity at 125.1 g/H / SEPTTR 3DC disease control rating, LV activity at 125.1 g/H / SEPTTR 3DC disease control rating, HV activity at 100 ppm / SEPTTR 1DP disease control rating, HV activity at 100 ppm / HV activity at 100 ppm SEPTTR 3DC (disease control rating) / HV activity at 100 ppm SEPTTR 1DP (disease control rating) / LV activity at 125.1 g/H SEPTTR 1DP (disease control rating) / LV activity at 125.1 g/H SEPTTR 3DC (disease control rating): A: > 80; B: ≤ 80; C: Not Tested; D: No Activity Observed in the Reported Assay; conditions: low volume application, 125.1 g/H; for SEPTTR 1DP, LV activity at 125.1 g/H (% Control rating): 1 Day Protectant; for SEPTTR 3DC, LV activity at 125.1 g/H (% Control rating): 3 Day Curative
Puccinia triticina = test: Wheat brown rust (PUCCRT) disease control on wheat seedlings; format: in vivo; design: key to PUCCRT 3DC, HV activity at 100 ppm (% control rating) / PUCCRT disease control, 3DC / PUCCRT 1DP disease control rating, HV activity / PUCCRT 3DC disease control rating, HV activity / PUCCRT 3DC, LV activity at 125.1 g/H (% Control rating) / PUCCRT 1DP, LV activity at 125.1 g/H (% Control rating) / PUCCRT 3DC disease control rating, LV activity at 125.1 g/H / PUCCRT 1DP disease control rating, LV activity at 125.1 g/H / PUCCRT 3DC disease control rating, HV activity at 100 ppm / PUCCRT 1DP disease control rating, HV activity at 100 ppm / HV activity at 100 ppm PUCCRT 3DC (disease control rating) / LV activity at 125.1 g/H PUCCRT 1DP (disease control rating) / LV activity at 125.1 g/H PUCCRT 3DC (disease control rating): A: > 80; B: ≤ 80; C: Not Tested; D: No Activity Observed in the Reported Assay; conditions: low volume application, 125.1 g/H; for PUCCRT 1DP, LV activity at 125.1 g/H (% Control rating): 1 Day Protectant; for PUCCRT 3DC, LV activity at 125.1 g/H (% Control rating): 3 Day Curative

Compound	SEPTTR 1DP, LV activity at 125.1 g/H (% Control rating) (Zymoseptoria tritici)	SEPTTR 3DC, LV activity at 125.1 g/H (% Control rating) (Zymoseptoria tritici)	PUCCRT 1DP, LV activity at 125.1 g/H (% Control rating) (Puccinia triticina)	PUCCRT 3DC, LV activity at 125.1 g/H (% Control rating) (Puccinia triticina)
CCCO[C@@H]([C@H](C)OC(=O)[C@H](C)NC(=O)c1nccc(OC)c1OCOC(=O)COCC)[C@H](CC)Oc1ccccc1 [Cmpd 512, (S)-(2S,3S,4S)-4-phenoxy-3-propoxyhexan-2-yl-2-(3-((2-ethoxyacetoxy)methoxy)-4-methoxypicolinamido)propanoate]	B (≤ 80)	A (> 80)	A (> 80)	A (> 80)
C=CC[C@@H](OCc1ccccc1)[C@H](C)OC(=O)[C@H](C)NC(=O)c1nccc(OC)c1OCOC(C)=O [Cmpd 516]	B (≤ 80)	D	A (> 80)	A (> 80)
C=CC[C@@H](OCc1ccccc1)[C@H](C)OC(=O)[C@H](C)NC(=O)c1nccc(OC)c1OCOC(=O)COCC [Cmpd 517]	A (> 80)	D	A (> 80)	A (> 80)
COc1ccnc(C(=O)NC(C)C(=O)OC(C)COCc2ccccc2)c1OCOC(C)=O (stereo not drawn) [Cmpd 520]	B (≤ 80)	D	B (≤ 80)	B (≤ 80)
CCCOCC(C)OC(=O)C(C)NC(=O)c1nccc(OC)c1OC(C)=O (stereo not drawn) [Cmpd 521]	D	D	D	D
CCCOCC(C)OC(=O)C(C)NC(=O)c1nccc(OC)c1OCOC(C)=O (stereo not drawn) [Cmpd 522]	B (≤ 80)	B (≤ 80)	D	D
CCCOCC(C)OC(=O)C(C)NC(=O)c1nccc(OC)c1OCOC(=O)C(C)C (stereo not drawn) [Cmpd 523]	D	D	D	D
COc1ccnc(C(=O)NC(C)C(=O)OC(C)COc2ccccc2)c1OC(C)=O (stereo not drawn) [Cmpd 524]	B (≤ 80)	B (≤ 80)	D	B (≤ 80)
COc1ccnc(C(=O)NC(C)C(=O)OC(C)COc2ccccc2)c1OCOC(C)=O (stereo not drawn) [Cmpd 525]	B (≤ 80)	D	D	B (≤ 80)
COCC[C@@H](OCc1ccccc1)[C@H](C)OC(=O)[C@H](C)NC(=O)c1nccc(OC)c1OCOC(C)=O [Cmpd 526]	B (≤ 80)	B (≤ 80)	D	B (≤ 80)
COc1ccnc(C(=O)NC(C)C(=O)OC(C)COCC2CC2)c1OCOC(C)=O (stereo not drawn) [Cmpd 527]	D	A (> 80)	B (≤ 80)	B (≤ 80)
COc1ccnc(C(=O)NC(C)C(=O)OC(C)COCC2CC2)c1OCOC(=O)C(C)C (stereo not drawn) [Cmpd 528]	D	B (≤ 80)	D	D
COc1ccnc(C(=O)NC(C)C(=O)OC(C)COCC2CC2)c1OC(C)=O (stereo not drawn) [Cmpd 529]	B (≤ 80)	B (≤ 80)	D	D
COc1ccnc(C(=O)NC(C)C(=O)OC(C)COC(=O)C(C)C)c1OCOC(C)=O (stereo not drawn) [Cmpd 530]	B (≤ 80)	B (≤ 80)	D	D
COc1ccnc(C(=O)NC(C)C(=O)OC(C)COC(=O)C(C)C)c1OCOC(=O)C(C)C (stereo not drawn) [Cmpd 531]	D	B (≤ 80)	D	D
COc1ccnc(C(=O)NC(C)C(=O)OC(C)COC(=O)C(C)C)c1OC(C)=O (stereo not drawn) [Cmpd 532]	B (≤ 80)	A (> 80)	D	D
COc1ccnc(C(=O)NC(C)C(=O)OC(C)COCC(C)C)c1OCOC(C)=O (stereo not drawn) [Cmpd 533]	D	A (> 80)	D	A (> 80)
COc1ccnc(C(=O)NC(C)C(=O)OC(C)COC2CCCC2)c1OCOC(C)=O (stereo not drawn) [Cmpd 534]	D	A (> 80)	D	A (> 80)
COc1ccnc(C(=O)NC(C)C(=O)OC(C)COC(C)(C)C)c1OCOC(C)=O (stereo not drawn) [Cmpd 535]	D	B (≤ 80)	D	B (≤ 80)
COc1ccnc(C(=O)NC(C)C(=O)OC(C)COc2ccccc2)c1OC(=O)C1CC1 (stereo not drawn) [Cmpd 541]	B (≤ 80)	B (≤ 80)	D	D
COc1ccnc(C(=O)N[C@@H](C)C(=O)O[C@@H](C)[C@H](Oc2ccc(Cl)cc2Cl)C2CCCC2)c1OCOC(C)=O [Cmpd 551]	A (> 80)	B (≤ 80)	A (> 80)	B (≤ 80)
CCC(CC)[C@@H](OCC1CC1)[C@H](C)OC(=O)[C@H](C)NC(=O)c1nccc(OC)c1OC(C)=O [Cmpd 555]	B (≤ 80)	A (> 80)	A (> 80)	A (> 80)
COc1ccnc(C(=O)N[C@@H](C)C(=O)O[C@@H](C)[C@H](Oc2ccc(Cl)cc2Cl)C(C)C)c1OCOC(C)=O [Cmpd 562]	D	A (> 80)	A (> 80)	A (> 80)
COc1ccnc(C(=O)N[C@H](C(=O)O[C@@H](C)[C@H](Oc2cccc(Cl)c2)C(C)C)C(C)C)c1OCOC(C)=O [Cmpd 564]	A (> 80)	A (> 80)	A (> 80)	A (> 80)
COc1ccnc(C(=O)N[C@@H](CC(C)C)C(=O)O[C@@H](C)[C@H](Oc2ccc(Cl)cc2Cl)C(C)C)c1OCOC(C)=O [Cmpd 565]	D	B (≤ 80)	B (≤ 80)	B (≤ 80)
COc1ccnc(C(=O)N[C@@H](C)C(=O)O[C@@H](C)[C@H](Oc2ccc(Cl)cc2Cl)C(C)C)c1OC(C)=O [Cmpd 567]	D	A (> 80)	A (> 80)	A (> 80)
COc1ccnc(C(=O)N[C@@H](CC(C)C)C(=O)O[C@@H](C)[C@H](Oc2ccc(Cl)cc2Cl)C(C)C)c1OC(C)=O [Cmpd 570]	D	D	D	D
